Legend:
Assay in all cases: cells
COLO-829 = assay type: functional, cell-based, Homo sapiens; conditions: Homo sapiens, COLO-829
Description: SANGER: Inhibition of human COLO-829 cell growth in a cell viability assay.

Calu-3 = assay type: functional, cell-based, Homo sapiens; conditions: Homo sapiens, Calu-3;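 further: growth inhibition of human Calu-3 cells, determined with a cell viability assay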
Description: SANGER: Inhibition of human Calu-3 cell growth in a cell viability assay.

Calu-6 = assay type: functional, cell-based, Homo sapiens; conditions: Homo sapiens, Calu-6;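 further: growth of human Calu-6 cells, read out by a cell viability assay, IC50 marking inhibition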
Description: SANGER: Inhibition of human Calu-6 cell growth in a cell viability assay.

D-247MG = assay type: functional, cell-based, Homo sapiens; conditions: Homo sapiens, D-247MG
Description: SANGER: Inhibition of human D-247MG cell growth in a cell viability assay.

D283 Med = assay type: functional, cell-based, Homo sapiens; conditions: Homo sapiens, D283 Med
Description: SANGER: Inhibition of human D-283MED cell growth in a cell viability assay.

EGI-1 = assay type: functional, cell-based, Homo sapiens; conditions: Homo sapiens, EGI-1;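 further: cell viability readout used to gauge growth inhibition of EGI-1 cells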
Description: SANGER: Inhibition of human EGI-1 cell growth in a cell viability assay.

G-402 = assay type: functional, cell-based, Homo sapiens; conditions: Homo sapiens, G-402
Description: SANGER: Inhibition of human G-402 cell growth in a cell viability assay.

GOTO = assay type: functional, cell-based, Homo sapiens; conditions: Homo sapiens, GOTO;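 further: growth inhibition of GOTO cells, read out by a cell viability assay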
Description: SANGER: Inhibition of human GOTO cell growth in a cell viability assay.

HH = assay type: functional, cell-based; conditions: Homo sapiens
Description: SANGER: Inhibition of human HH cell growth in a cell viability assay.

HT-29 = assay type: functional, cell-based, Homo sapiens; conditions: Homo sapiens, HT-29;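 further: growth inhibition of human HT-29 cells, read out by a cell viability assay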
Description: SANGER: Inhibition of human HT-29 cell growth in a cell viability assay.

HuP-T3 = assay type: functional, cell-based, Homo sapiens; conditions: Homo sapiens, HuP-T3;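 further: HuP-T3 cell growth inhibition, read out with a cell viability assay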
Description: SANGER: Inhibition of human HuP-T3 cell growth in a cell viability assay.

KLE = assay type: functional, cell-based, Homo sapiens; conditions: Homo sapiens, KLE;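 further: growth inhibition of human KLE cells, read out with a cell viability assay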
Description: SANGER: Inhibition of human KLE cell growth in a cell viability assay.

KP-N-YS = assay type: functional, cell-based; conditions: Homo sapiens;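 further: cell viability assay measuring inhibition of cell line growth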
Description: SANGER: Inhibition of human KP-N-YS cell growth in a cell viability assay.

LAMA-84 = assay type: functional, cell-based; conditions: Homo sapiens;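 further: growth inhibition of LAMA-84 cells, read out with a cell viability assay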
Description: SANGER: Inhibition of human LAMA-84 cell growth in a cell viability assay.

LOX IMVI = assay type: functional, cell-based; conditions: Homo sapiens
Description: SANGER: Inhibition of human LOXIMVI cell growth in a cell viability assay.

LS-1034 = assay type: functional, cell-based, Homo sapiens; conditions: Homo sapiens, LS-1034
Description: SANGER: Inhibition of human LS-1034 cell growth in a cell viability assay.

MFH-ino = assay type: functional, cell-based; conditions: Homo sapiens;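 further: growth inhibition of human MFH-ino cells, read out by a cell viability assay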
Description: SANGER: Inhibition of human MFH-ino cell growth in a cell viability assay.

MHH-NB-11 = assay type: functional, cell-based, Homo sapiens; conditions: Homo sapiens, MHH-NB-11;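 further: growth inhibition of human MHH-NB-11 cells, read out by a cell viability assay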
Description: SANGER: Inhibition of human MHH-NB-11 cell growth in a cell viability assay.

MKN-1 = assay type: functional, cell-based, Homo sapiens; conditions: Homo sapiens, MKN-1;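 further: growth inhibition of human MKN1 cells, read out by a cell viability measurement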
Description: SANGER: Inhibition of human MKN1 cell growth in a cell viability assay.

MPP-89 = assay type: functional, cell-based, Homo sapiens; conditions: Homo sapiens, MPP-89;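 further: growth inhibition of human MPP-89 cells, read out with a cell viability assay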
Description: SANGER: Inhibition of human MPP-89 cell growth in a cell viability assay.

MZ2-MEL = assay type: functional, cell-based, Homo sapiens; conditions: Homo sapiens, MZ2-MEL;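 further: growth inhibition of MZ2-MEL cells read out with a cell viability assay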
Description: SANGER: Inhibition of human MZ2-MEL cell growth in a cell viability assay.

NCI-H1693 = assay type: functional, cell-based, Homo sapiens; conditions: Homo sapiens, NCI-H1693;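 further: growth inhibition of the human cell line, read out with a cell viability assay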
Description: SANGER: Inhibition of human NCI-H1693 cell growth in a cell viability assay.

NCI-H1993 = assay type: functional, cell-based, Homo sapiens; conditions: Homo sapiens, NCI-H1993;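 further: growth inhibition of the cancer cell line, assessed with a cell viability assay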
Description: SANGER: Inhibition of human NCI-H1993 cell growth in a cell viability assay.

NCI-H2405 = assay type: functional, cell-based, Homo sapiens; conditions: Homo sapiens, NCI-H2405;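 further: growth inhibition of the human cell line, read out with a cell viability assay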
Description: SANGER: Inhibition of human NCI-H2405 cell growth in a cell viability assay.

NCI-H292 = assay type: functional, cell-based, Homo sapiens; conditions: Homo sapiens, NCI-H292;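 further: growth inhibition of NCI-H292 cells, read out with a cell viability assay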
Description: SANGER: Inhibition of human NCI-H292 cell growth in a cell viability assay.

NCI-H358 = assay type: functional, cell-based, Homo sapiens; conditions: Homo sapiens, NCI-H358;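 further: growth inhibition of NCI-H358 human cells, read out with a cell viability assay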
Description: SANGER: Inhibition of human NCI-H358 cell growth in a cell viability assay.

SH-4 = assay type: functional, cell-based, Homo sapiens; conditions: Homo sapiens, SH-4;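 further: growth inhibition of SH-4 cells, read out with a cell viability assay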
Description: SANGER: Inhibition of human SH-4 cell growth in a cell viability assay.

SK-MEL-2 = assay type: functional, cell-based, Homo sapiens; conditions: Homo sapiens, SK-MEL-2;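 further: growth inhibition of human SK-MEL-2 cells measured with a cell viability assay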
Description: SANGER: Inhibition of human SK-MEL-2 cell growth in a cell viability assay.

SK-MES-1 = assay type: functional, cell-based, Homo sapiens; conditions: Homo sapiens, SK-MES-1;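 further: growth inhibition of human SK-MES-1 cells, read out with a cell viability assay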
Description: SANGER: Inhibition of human SK-MES-1 cell growth in a cell viability assay.

SW1783 = assay type: functional, cell-based; conditions: Homo sapiens;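 further: cell growth inhibition measured with a viability assay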
Description: SANGER: Inhibition of human SW1783 cell growth in a cell viability assay.

SW 962 = assay type: functional, cell-based, Homo sapiens; conditions: Homo sapiens, SW 962;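 further: growth inhibition of human SW962 cells, read out by a cell viability assay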
Description: SANGER: Inhibition of human SW962 cell growth in a cell viability assay.

T-24 = assay type: functional, cell-based, Homo sapiens; conditions: Homo sapiens, T-24;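 further: growth inhibition of T-24 cells, read out with a cell viability assay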
Description: SANGER: Inhibition of human T-24 cell growth in a cell viability assay.

T98G = assay type: functional, cell-based, Homo sapiens; conditions: Homo sapiens, T98G;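 further: growth inhibition of T98G cells, read out by a cell viability assay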
Description: SANGER: Inhibition of human T98G cell growth in a cell viability assay.

TE-1 = assay type: functional, cell-based, Homo sapiens; conditions: Homo sapiens, TE-1
Description: SANGER: Inhibition of human TE-1 cell growth in a cell viability assay.

697 = assay type: functional, cell-based; conditions: Homo sapiens
Description: SANGER: Inhibition of human 697 cell growth in a cell viability assay.

786-0 = assay type: functional, cell-based, Homo sapiens; conditions: Homo sapiens
Description: SANGER: Inhibition of human 786-0 cell growth in a cell viability assay.

A-375 = assay type: functional, cell-based, Homo sapiens; conditions: Homo sapiens, A-375;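 further: growth inhibition of A375 cells, read out with a cell viability assay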
Description: SANGER: Inhibition of human A375 cell growth in a cell viability assay.

A704 = assay type: functional, cell-based, Homo sapiens; conditions: Homo sapiens, A704;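 further: growth inhibition of human A704 cells, read out with a cell viability assay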
Description: SANGER: Inhibition of human A704 cell growth in a cell viability assay.

AGS = assay type: functional, cell-based, Homo sapiens; conditions: Homo sapiens, AGS;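 further: growth inhibition of AGS cells, determined with a cell viability assay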
Description: SANGER: Inhibition of human AGS cell growth in a cell viability assay.

ASPC1 = assay type: functional, cell-based, Homo sapiens; conditions: Homo sapiens, ASPC1;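 further: growth inhibition of AsPC-1 cells, read out with a cell viability assay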
Description: SANGER: Inhibition of human AsPC-1 cell growth in a cell viability assay.

BB65-RCC = assay type: functional, cell-based, Homo sapiens; conditions: Homo sapiens, BB65-RCC;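 further: growth inhibition of the cell line, measured with a cell viability assay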
Description: SANGER: Inhibition of human BB65-RCC cell growth in a cell viability assay.

BEN = assay type: functional, cell-based, Homo sapiens; conditions: Homo sapiens, BEN;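 further: growth inhibition of the BEN cell line, read out with a cell viability assay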
Description: SANGER: Inhibition of human BEN cell growth in a cell viability assay.

BFTC-905 = assay type: functional, cell-based, Homo sapiens; conditions: Homo sapiens, BFTC-905
Description: SANGER: Inhibition of human BFTC-905 cell growth in a cell viability assay.

CAL-12T = assay type: functional, cell-based, Homo sapiens; conditions: Homo sapiens, CAL-12T;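 further: growth inhibition of human CAL-12T cells, read out with a cell viability assay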
Description: SANGER: Inhibition of human CAL-12T cell growth in a cell viability assay.

CAL-27 = assay type: functional, cell-based, Homo sapiens; conditions: Homo sapiens, CAL-27;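 further: Viability-based readout, IC50 reflecting inhibition of CAL-27 cell growth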
Description: SANGER: Inhibition of human CAL-27 cell growth in a cell viability assay.

TE-11 = assay type: functional, cell-based, Homo sapiens; conditions: Homo sapiens, TE-11;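 further: growth inhibition of human TE-11 cells, read out by a cell viability assay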
Description: SANGER: Inhibition of human TE-11 cell growth in a cell viability assay.

TE-8 = assay type: functional, cell-based, Homo sapiens; conditions: Homo sapiens, TE-8;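 further: growth inhibition of TE-8 cells, measured with a cell viability readout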
Description: SANGER: Inhibition of human TE-8 cell growth in a cell viability assay.

UMUC3 = assay type: functional, cell-based, Homo sapiens; conditions: Homo sapiens, UMUC3;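 further: growth inhibition of human UM-UC-3 cells, read out with a cell viability assay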
Description: SANGER: Inhibition of human UM-UC-3 cell growth in a cell viability assay.

no-10 = assay type: functional, cell-based, Homo sapiens; conditions: Homo sapiens;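 further: growth inhibition of no-10 cells, read out with a cell viability assay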
Description: SANGER: Inhibition of human no-10 cell growth in a cell viability assay.

CHL-1 = assay type: functional, cell-based, Homo sapiens; conditions: Homo sapiens, CHL-1;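 further: cell growth inhibition, read out with a cell viability assay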
Description: SANGER: Inhibition of human CHL-1 cell growth in a cell viability assay.

**Q.** `O=c1cc(-c2cccc3c2Sc2ccccc2S3)oc(N2CCOCC2)c1` [KU-55933] was tested. Which IC50 (COLO-829) did it give?
**A.** > 10 µM

**Q.** What about the IC50 (Calu-3) of the same compound?
**A.** > 10 µM

**Q.** What about the IC50 (Calu-6) of the same compound?
**A.** > 10 µM

**Q.** And the IC50 (D-247MG)?
**A.** > 10 µM

**Q.** And the IC50 (D283 Med)?
**A.** > 10 µM

**Q.** What about the IC50 (EGI-1) of the same compound?
**A.** > 10 µM

**Q.** What about the IC50 (G-402) of the same compound?
**A.** > 10 µM

**Q.** And the IC50 (GOTO)?
**A.** > 10 µM

**Q.** And the IC50 (HH)?
**A.** 8.28 µM

**Q.** And the IC50 (HT-29)?
**A.** > 10 µM

**Q.** And the IC50 (HuP-T3)?
**A.** > 10 µM

**Q.** What about the IC50 (KLE) of the same compound?
**A.** > 10 µM

**Q.** And the IC50 (KP-N-YS)?
**A.** > 10 µM

**Q.** What about the IC50 (LAMA-84) of the same compound?
**A.** 4.58 µM

**Q.** And the IC50 (LOX IMVI)?
**A.** > 10 µM

**Q.** What about the IC50 (LS-1034) of the same compound?
**A.** > 10 µM

**Q.** And the IC50 (MFH-ino)?
**A.** > 10 µM

**Q.** What about the IC50 (MHH-NB-11) of the same compound?
**A.** > 10 µM

**Q.** And the IC50 (MKN-1)?
**A.** > 10 µM

**Q.** And the IC50 (MPP-89)?
**A.** > 10 µM

**Q.** What about the IC50 (MZ2-MEL) of the same compound?
**A.** > 10 µM

**Q.** And the IC50 (NCI-H1693)?
**A.** > 10 µM

**Q.** What about the IC50 (NCI-H1993) of the same compound?
**A.** > 10 µM

**Q.** And the IC50 (NCI-H2405)?
**A.** > 10 µM

**Q.** What about the IC50 (NCI-H292) of the same compound?
**A.** > 10 µM

**Q.** What about the IC50 (NCI-H358) of the same compound?
**A.** > 10 µM

**Q.** What about the IC50 (SH-4) of the same compound?
**A.** > 10 µM

**Q.** What about the IC50 (SK-MEL-2) of the same compound?
**A.** > 10 µM

**Q.** And the IC50 (SK-MES-1)?
**A.** > 10 µM

**Q.** What about the IC50 (SW1783) of the same compound?
**A.** > 10 µM

**Q.** What about the IC50 (SW 962) of the same compound?
**A.** > 10 µM

**Q.** What about the IC50 (T-24) of the same compound?
**A.** > 10 µM

**Q.** What about the IC50 (T98G) of the same compound?
**A.** > 10 µM

**Q.** And the IC50 (TE-1)?
**A.** > 10 µM

**Q.** What about the IC50 697 of the same compound?
**A.** > 10 µM

**Q.** What about the IC50 (786-0) of the same compound?
**A.** > 10 µM

**Q.** What about the IC50 (A-375) of the same compound?
**A.** > 10 µM

**Q.** What about the IC50 (A704) of the same compound?
**A.** > 10 µM

**Q.** And the IC50 (AGS)?
**A.** > 10 µM

**Q.** And the IC50 (ASPC1)?
**A.** > 10 µM

**Q.** What about the IC50 (BB65-RCC) of the same compound?
**A.** > 10 µM

**Q.** And the IC50 (BEN)?
**A.** > 10 µM

**Q.** What about the IC50 (BFTC-905) of the same compound?
**A.** > 10 µM

**Q.** What about the IC50 (CAL-12T) of the same compound?
**A.** > 10 µM

**Q.** What about the IC50 (CAL-27) of the same compound?
**A.** > 10 µM

**Q.** And the IC50 (TE-11)?
**A.** > 10 µM

**Q.** And the IC50 (TE-8)?
**A.** > 10 µM

**Q.** And the IC50 (UMUC3)?
**A.** > 10 µM

**Q.** And the IC50 (no-10)?
**A.** > 10 µM

**Q.** And the IC50 (CHL-1)?
**A.** > 10 µM

**Q.** What does the source list for `Cn1cc(C2=C(c3ccc(Cl)cc3Cl)C(=O)NC2=O)c2ccccc21` [SB-216763]?
**A.** IC50 (COLO-829): > 10 µM; IC50 (Calu-3): > 10 µM; IC50 (Calu-6): > 10 µM; IC50 (D-247MG): > 10 µM; IC50 (D283 Med): > 10 µM; IC50 (EGI-1): > 10 µM; IC50 (G-402): > 10 µM; IC50 (GOTO): > 10 µM; IC50 (HH): > 10 µM; IC50 (HT-29): > 10 µM; IC50 (HuP-T3): > 10 µM; IC50 (KLE): > 10 µM; IC50 (KP-N-YS): > 10 µM; IC50 (LAMA-84): > 10 µM; IC50 (LOX IMVI): > 10 µM; IC50 (LS-1034): > 10 µM; IC50 (MFH-ino): > 10 µM; IC50 (MHH-NB-11): > 10 µM; IC50 (MKN-1): > 10 µM; IC50 (MPP-89): > 10 µM; IC50 (MZ2-MEL): > 10 µM; IC50 (NCI-H1693): > 10 µM; IC50 (NCI-H1993): 8.37 µM; IC50 (NCI-H2405): > 10 µM; IC50 (NCI-H292): > 10 µM; IC50 (NCI-H358): > 10 µM; IC50 (SH-4): > 10 µM; IC50 (SK-MEL-2): > 10 µM; IC50 (SK-MES-1): > 10 µM; IC50 (SW1783): > 10 µM; IC50 (SW 962): > 10 µM; IC50 (T-24): > 10 µM; IC50 (T98G): > 10 µM; IC50 (TE-1): > 10 µM; IC50 697: > 10 µM; IC50 (786-0): > 10 µM; IC50 (A-375): > 10 µM; IC50 (A704): > 10 µM; IC50 (AGS): > 10 µM; IC50 (ASPC1): > 10 µM; IC50 (BB65-RCC): > 10 µM; IC50 (BEN): > 10 µM; IC50 (BFTC-905): > 10 µM; IC50 (CAL-12T): > 10 µM; IC50 (CAL-27): > 10 µM; IC50 (TE-11): > 10 µM; IC50 (TE-8): > 10 µM; IC50 (UMUC3): > 10 µM; IC50 (no-10): > 10 µM; IC50 (CHL-1): > 10 µM
